The values below come from PMC10282898 (Organic & Biomolecular Chemistry, 2023).

One assay relates to A3 enzymes. The note with it: cited from earlier work.
The target in another assay is hCDA (Homo sapiens, UniProt P32320). Description: Quantitative evaluation of hCDA inhibitors. Type of assay: biochemical.
hCDA, sequence (P32320 whole entry): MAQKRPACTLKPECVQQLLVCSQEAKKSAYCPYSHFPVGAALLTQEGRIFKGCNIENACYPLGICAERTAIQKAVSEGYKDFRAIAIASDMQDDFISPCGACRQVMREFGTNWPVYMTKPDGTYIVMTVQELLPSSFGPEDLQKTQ

As to `O=C1NC(O)CCN1[C@@H]1O[C@H](CO)[C@@H](O)[C@H]1O` (stereo partly drawn) [THU, tetrahydrouridine], in the assay on A3 enzymes, the “inhibition of A3 enzymes by free nucleosides” value is recorded as “did not inhibit”.

The Ki is the equilibrium dissociation constant of an inhibitor or competing ligand from its target. Read a low Ki as higher affinity. On to `O=C1NCC=CCN1[C@H]1C[C@H](O)[C@@H](CO)O1` [dDiAzep, 8, 1,3-diazepin-2-one 2′-deoxyriboside], for which affinity on hCDA (hCDA 27 nM, dC substrate, pH 7.4, 25 °C, competitive inhibition assumed) was put at a Ki of 0.43 ± 0.08 µM. Besides, on hCDA (hCDA, Km of dC over Ki of inhibitor), the Km/Ki came to 512.
